Patent publication US20100113484A1, “TREATING AGENT OF UROPATHY” (ASKA PHARMACEUTICAL CO., LTD., priority 2006, published 2010)
Like-named read-outs stand apart in the source and are kept apart here.

Columns and labels:
[1] = target: T1, human recombinant PDE9 protein (Homo sapiens, UniProt O76083); assay: Measurement of PDE9-inhibiting activity ([3H]-cGMP hydrolysis); assay type: biochemical
T1 construct: made in house; host or cells: COS-1 cells, transient transfection with pcDNA 3.1 (+); supernatant of the homogenate, not purified
T1 sequence (O76083 whole entry): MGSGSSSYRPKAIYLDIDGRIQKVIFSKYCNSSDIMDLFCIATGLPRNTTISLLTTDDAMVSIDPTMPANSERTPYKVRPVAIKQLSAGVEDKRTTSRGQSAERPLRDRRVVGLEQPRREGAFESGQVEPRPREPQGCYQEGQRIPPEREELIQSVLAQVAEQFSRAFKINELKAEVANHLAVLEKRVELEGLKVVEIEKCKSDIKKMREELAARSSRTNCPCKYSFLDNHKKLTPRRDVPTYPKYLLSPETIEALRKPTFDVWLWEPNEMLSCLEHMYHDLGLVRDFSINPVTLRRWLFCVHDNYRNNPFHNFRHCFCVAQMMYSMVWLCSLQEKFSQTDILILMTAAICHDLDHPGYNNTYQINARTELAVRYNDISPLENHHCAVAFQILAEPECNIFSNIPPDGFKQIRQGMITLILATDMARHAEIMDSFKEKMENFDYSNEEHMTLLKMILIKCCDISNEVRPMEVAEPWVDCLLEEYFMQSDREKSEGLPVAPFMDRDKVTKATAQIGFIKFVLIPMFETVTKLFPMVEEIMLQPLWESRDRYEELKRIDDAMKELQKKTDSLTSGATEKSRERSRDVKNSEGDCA
Experimental: Based on the base sequence of hsPDE9A1 registered with GenBank database (accession No.: AF048837), hsPDE9A1 fragment was amplified by polymerase chain reaction under the following conditions, using the following sequence (Amasham Pharmacia Biotech) as the primer and Human Prostate […] cDNA library (CLONTECH) as the template DNA, with Pfu Turbo DNA polymerase ([…]):
PCR condition: [95° C., 5 min]×1 cycle, [(95° C., 1 min), (58° C., 2 min), (72° C., 3 min)]×25 cycles, [72° C., 10 min]×1 cycle
Thus obtained hsPDE9A1 fragment was given a restricted enzymatic treatment with NheI and NotI, and thereafter inserted into pcDNA 3.1 (+) expression vector (Invitrogen) to let it serve as a human PDE9 expression vector.
(§1) Human PDE9 expression vector-transformed Escherichia coli was mass incubated to produce a large amount of human PDE9 expression vector, which was transiently transfected into COS-1 cells, with LIPOFECTAMINE 2000 Reagent (GIBCO). The cells were homogenized in ice-cooled buffer A (40 mmol/L Tris-HCl, pH7.5, 15 mmol/L benzamidine, 15 mmol/L 2-mercaptoethanol, 1 μg/mL Pepstatin A, 1 μg/mL Leupeptin, 5 mmol/L EDTA) and centrifuged at 4° C., 14,000×g for 10 minutes. The supernatant was isolated to provide human recombinant PDE9 protein solution.
This mixed solution was incubated at 30° C. for 30 minutes and the enzymatic reaction of PDE9 was terminated by heating the system in boiling water for 90 seconds. Returning the system to room temperature, 50 μL of Snake venom (SIGMA: 1 mg/mL) was added, followed by 10 minutes' incubation at 30° C., to convert the [^3H]-5′-GMP produced in the previous reaction to [^3H]-guanosine. […] Thereafter [^3H]-guanosine was eluted with 3 mL of 3 mol/L aqueous ammonia and its radiation activity was measured with liquid scintillation counter.
PDE9 inhibition of the tested compound can be calculated by the following formula: […]
From the percent inhibition at various concentration levels of each tested compound, its IC50 value against PDE9 can be determined.

[2] = target: T2, human recombinant PDE5 protein (Homo sapiens, UniProt O76074); assay: Measurement of PDE5-inhibiting activity; assay type: biochemical; settings: Tables A and C; read-out: Inhibiting Activity (IC50 value) PDE5
T2 construct: made in house; host or cells: COS-1 cells, transient transfection with pcDNA 3.1 (+); supernatant of the homogenate, not purified
Experimental: PCR condition: [94° C., 2 min]×1 cycle, [(94° C., 30 sec), (65° C., 30 sec), (68° C., 3 min)]×25 cycles, [68° C., 6 min]×1 cycle
Thus obtained hsPDE5A1 fragment was given a restricted enzymatic treatment with XBaI and EcoRI, and thereafter inserted into pcDNA 3.1 (+) expression vector (Invitrogen) to let it serve as a human PDE5 expression vector.
as §1, with “PDE5” for “PDE9”, “A” for “A (40 mmol/L Tris-HCl, pH7.5, 15 mmol/L benzamidine, 15 mmol/L 2-mercaptoethanol, 1 μg/mL Pepstatin A, 1 μg/mL Leupeptin, 5 mmol/L EDTA)”

[3] = tested on: partial urethra obstruction model in guinea pigs; assay: Dysuria pathological model: partial urethra obstruction model, cystometry; assay type: in vivo, Hartley female guinea pigs; settings: guinea pig, i.v., 1 mg/kg
Experimental: Three-four weeks old Hartley female guinea pigs (Japan SLC, Inc.) were given celiotomy under anesthesia with pentobarbital (30 mg/kg i.p.) and in their urethra to the peripheral side by 1-2 mm from the bladder neck, each a polyethylene tube of 1.4 mm in width and 2.0 mm in inner diameter was placed. After closing the wound, the guinea pigs were bred for at least 3 weeks to produce partial urethra obstruction model in guinea pigs in which occurrence of intravesical pressure rise not accompanied by micturition (uninhibited contraction) and residual urine were observed.
The model was catheterized under anesthesia with urethane (1 g/kg i.p.) at the apex of urinary bladder and right jugular vein for cystometrography and intravenous administration, respectively. The other end of the bladder catheter was connected to a pressure transducer and infusion pump via a three way stop-cock, and physiological saline was continuously infused into the bladder through the infusion pump at a rate of 0.4 mL/min to induce micturition reflex. Immediately after the micturition reflex was induced, infusion of physiological saline into the bladder was stopped. The intravesical pressure at the time the micturition reflex was induced was measured with the pressure transducer, and the obtained cystometrogram was recorded with pen recorder. The urine voided was collected with disposable type weighing dish and its weight was measured. Further the physiological saline remained in the bladder was sucked with syringe via the bladder catheter and the residual urine volume was measured. The operations of suspending the infusion of physiological saline upon induction of micturition reflex, and about 1 minute thereafter resuming the infusion of physiological saline to induce micturition reflex were repeated plural times (generally 4 times) to stabilize the micturition reflex.
After stabilizing the micturition reflex, a compound solution (prepared by dissolving the compound or methanesulfonic acid salt thereof in DMSO and diluting it with physiological saline or distilled water) or physiological saline was administered into the vein at a volume of 10 mL/kg over 4 minutes, and simultaneously the above-described micturition reflex operations were repeated until 30 minutes passed after initiation of the administration, while measuring the intravesical pressure and the volumes of micturition and residual urine. Also the frequency of uninhibited contraction occurrence during the above-described operations was recorded.

[4] = Tables A and C, read-out: Inhibiting Activity (IC50 value) PDE9
[5] = Table B, read-out: Inhibiting Activity IC50 PDE9

Compound | IC50 [1, 4] [nM] | IC50 [2] [nM] | also measured
2-(3-Chloro-4-fluorobenzyl)-5-methyl-4-oxo-3,4-dihydrothieno-[2,3-d]pyrimidine-6-carboxylic acid [A-10] | 38 | 3420 | –
2-(5-Chlorothiophen-2-ylmethyl)-5-methyl-4-oxo-3,4-dihydrothieno[2,3-d]pyrimidine-6-carboxylic acid [A-3] | 34 | 6900 | –
Cc1c(C(=O)O)sc2nc(Cc3ccsc3)[nH]c(=O)c12 [A-1, 5-Methyl-4-oxo-2-(thiophen-3-ylmethyl)-3,4-dihydrothieno[2,3-d]-pyrimidine-6-carboxylic acid] | 22 | 17800 | –
Cc1c(C(=O)O)sc2nc(Cc3cccc(Br)c3)[nH]c(=O)c12 [A-5, 2-(3-Bromobenzyl)-5-methyl-4-oxo-3,4-dihydrothieno[2,3-d]-pyrimidine-6-carboxylic acid] | 24 | 4430 | –
Cc1c(C(=O)O)sc2nc(Cc3cccc(C(F)(F)F)c3)[nH]c(=O)c12 [A-6, 5-Methyl-4-oxo-2-(3-trifluoromethylbenzyl)-3,4-dihydrothieno[2,3-d]pyrimidine-6-carboxylic acid] | 34 | 22200 | –
Cc1c(C(=O)O)sc2nc(Cc3ccccc3SC(F)(F)F)[nH]c(=O)c12 [A-8, 5-Methyl-4-oxo-2-(2-trifluoromethylthiobenzyl)-3,4-dihydrothieno[2,3-d]pyrimidine-6-carboxylic acid] | 46 | 20000 | –
Cc1c(C(=O)O)sc2nc(Cc3ccc(F)c(C(F)(F)F)c3)[nH]c(=O)c12 [A-9, 2-(4-Fluoro-3-trifluoromethylbenzyl)-5-methyl-4-oxo-3,4-dihydrothieno[2,3-d]pyrimidine-6-carboxylic acid] | 44 | 18900 | –
Cc1c(C(=O)O)sc2nc(Cc3cc(Cl)ccc3F)[nH]c(=O)c12 [A-11, 2-(5-Chloro-2-fluorobenzyl)-5-methyl-4-oxo-3,4-dihydrothieno-[2,3-d]pyrimidine-6-carboxylic acid] | 22 | 5710 | –
Cc1c(C(=O)O)sc2nc(Cc3cc(F)ccc3F)[nH]c(=O)c12 [A-12, 2-(2,5-Difluorobenzyl)-5-methyl-4-oxo-3,4-dihydrothieno-[2,3-d]pyrimidine-6-carboxylic acid] | 42 | 19800 | –
Cc1c(C(=O)O)sc2nc(CC3=CCCC3)[nH]c(=O)c12 [A-13, 2-(Cyclopent-1-enylmethyl)-5-methyl-4-oxo-3,4-dihydrothieno-[2,3-d]pyrimidine-6-carboxylic acid] | 28 | 8590 | –
Cc1c(C(=O)O)sc2nc(CC3=CCCCC3)[nH]c(=O)c12 [A-14, 2-(Cyclohex-1-enylmethyl)-5-methyl-4-oxo-3,4-dihydrothieno-[2,3-d]pyrimidine-6-carboxylic acid] | 54 | 1640 | –
O=C(O)c1cc2c(=O)[nH]c(Cc3ccsc3)nc2s1 [A-15, 4-Oxo-2-(thiophen-3-ylmethyl)-3,4-dihydrothieno-[2,3-d]pyrimidine-6-carboxylic acid] | 14 | 34900 | –
O=C(O)c1cc2c(=O)[nH]c(Cc3cccs3)nc2s1 [A-16, 4-Oxo-2-(thiophen-2-ylmethyl)-3,4-dihydrothieno[2,3-d]-pyrimidine-6-carboxylic acid] | 15 | 41200 | –
O=C(O)c1cc2c(=O)[nH]c(Cc3ccccc3)nc2s1 [A-17, 2-Benzyl-4-oxo-3,4-dihydrothieno[2,3-d]pyrimidine-6-carboxylic acid] | 19 | 34400 | –
O=C(O)c1cc2c(=O)[nH]c(Cc3cccc(Cl)c3)nc2s1 [A-18, 2-(3-Chlorobenzyl)-4-oxo-3,4-dihydrothieno[2,3-d]-pyrimidine-6-carboxylic acid] | 10 | 15800 | –
O=C(O)c1cc2c(=O)[nH]c(Cc3cccc(C(F)(F)F)c3)nc2s1 [A-19, 4-Oxo-2-(3-trifluoromethylbenzyl)-3,4-dihydrothieno-[2,3-d]pyrimidine-6-carboxylic acid] | 15 | 30200 | –
O=C(O)c1cc2c(=O)[nH]c(Cc3ccc(Cl)c(Cl)c3)nc2s1 [A-20, 2-(3,4-Dichlorobenzyl)-4-oxo-3,4-dihydrothieno[2,3-d]-pyrimidine-6-carboxylic acid] | 9 | 2280 | –
Cc1c(C(=O)O)sc2nc(Cc3ccsc3)[nH]c(=S)c12 [A-22, 5-Methyl-2-(thiophen-3-ylmethyl)-4-thioxo-3,4-dihydrothieno-[2,3-d]pyrimidine-6-carboxylic acid] | 9 | 1640 | –
Cc1c(C(=O)O)sc2nc(Cc3cccs3)[nH]c(=S)c12 [A-23, 5-Methyl-2-(thiophen-2-ylmethyl)-4-thioxo-3,4-dihydrothieno-[2,3-d]pyrimidine-6-carboxylic acid] | 31 | 1540 | –
COc1ccc(Cc2nc3cc(C(=O)O)ccc3c(=O)[nH]2)cc1OC [B-3, 2-(3,4-Dimethoxybenzyl)-4-oxo-3,4-dihydroquinazoline-7-carboxylic acid] | – | – | Inhibiting Activity inhibition ratio at 1 μM PDE9 ([1]; Table B): inhibition ratio = 11%
COc1ccccc1Cc1nc2cc(C(=O)O)ccc2c(=O)[nH]1 [B-4, 2-(2-Methoxybenzyl)-4-oxo-3,4-dihydroquinazoline-7-carboxylic acid] | – | – | IC50 [1, 5]: 1290 nM
COc1cccc(Cc2nc3cc(C(=O)O)ccc3c(=O)[nH]2)c1 [B-5, 2-(3-Methoxybenzyl)-4-oxo-3,4-dihydroquinazoline-7-carboxylic acid] | – | – | Inhibiting Activity inhibition ratio at 1 μM PDE9 ([1]; Table B): inhibition ratio = 41%
O=C(O)c1ccc2c(=O)[nH]c(Cc3ccccn3)nc2c1 [B-6, 4-Oxo-2-(2-pyridylmethyl)-3,4-dihydroquinazoline-7-carboxylic acid] | – | – | IC50 [1, 5]: 1290 nM
O=C(O)c1ccc2c(=O)[nH]c(Cc3cccnc3)nc2c1 [B-7, 4-Oxo-2-(3-pyridylmethyl)-3,4-dihydroquinazoline-7-carboxylic acid] | – | – | Inhibiting Activity inhibition ratio at 1 μM PDE9 ([1]; Table B): inhibition ratio = 30%
O=C(O)c1ccc2c(=O)[nH]c(Cc3cccs3)nc2c1 [B-8, 4-Oxo-2-(2-thienylmethyl)-3,4-dihydroquinazoline-7-carboxylic acid] | – | – | IC50 [1, 5]: 93 nM
Cn1c(Cc2cccc(Cl)c2)nc2cc(C(=O)O)ccc2c1=O [B-9, 2-(3-Chlorobenzyl)-3-methyl-4-oxo-3,4-dihydroquinazoline-7-carboxylic acid] | – | – | IC50 [1, 5]: 4660 nM
CC(C)c1ncc2c(=O)[nH]c3cc(Cl)ccc3n12 [C-1 (methanesulfonate)] | – | – | Frequency of occurrence of uninhibited contraction volume change [3]: +0.77 times/min; Residual urine volume volume change [3]: 0.22 mL
